Source: PubChem BioAssay AID330 (DTP/NCI, 2004)
“And” between values parts separate entries of the source, which are not always exact repeats. Equal values may be shown once. Inconclusive results and toxic doses are left out.

Test system: P388 leukemia ip, CD2F1 mice, survival T/C
Assay: NCI In Vivo Anticancer Drug Screen. Data for tumor model P388 Leukemia (intraperitoneal) in CD2F1 (CDF1) mice
Details: endpoint: median survival time, higher = longer survival
Method in brief: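 Mice carrying the transplanted tumor received test compound or vehicle. Survival was recorded in each group, and the value is the treated-group measurement divided by that of the vehicle-treated control group.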

[1] = dose: 100.0 mg/kg/injection, schedule: Q01DX009 (ip), vehicle: Klucel (hydroxypropylcellulose) (HPC)
[2] = dose: 100.0 mg/kg/injection, schedule: Q01DX009 (ip), vehicle: saline with Tween-80
[3] = dose: 200.0 mg/kg/injection, schedule: Q01DX009 (ip), vehicle: Klucel (hydroxypropylcellulose) (HPC)
[4] = dose: 200.0 mg/kg/injection, schedule: Q01DX009 (ip), vehicle: saline with Tween-80
[5] = dose: 25.0 mg/kg/injection, schedule: Q01DX009 (ip), vehicle: saline with Tween-80
[6] = dose: 50.0 mg/kg/injection, schedule: Q01DX009 (ip), vehicle: saline with Tween-80
[7] = dose: 60.0 mg/kg/injection, schedule: Q01DX005 (ip), vehicle: saline with Tween-80
[8] = dose: 120.0 mg/kg/injection, schedule: Q01DX005 (ip), vehicle: saline with Tween-80
[9] = dose: 240.0 mg/kg/injection, schedule: Q01DX005 (ip), vehicle: saline with Tween-80
[10] = dose: 50.0 mg/kg/injection, schedule: Q01DX005 (ip), vehicle: Klucel (hydroxypropylcellulose) (HPC)
[11] = dose: 100.0 mg/kg/injection, schedule: Q01DX005 (ip), vehicle: Klucel (hydroxypropylcellulose) (HPC)
[12] = dose: 50.0 mg/kg/injection, schedule: Q01DX005 (ip), vehicle: saline with Tween-80
[13] = dose: 100.0 mg/kg/injection, schedule: Q01DX005 (ip), vehicle: saline with Tween-80
[14] = dose: 200.0 mg/kg/injection, schedule: Q01DX005 (ip), vehicle: saline with Tween-80
[15] = dose: 50.0 mg/kg/injection, schedule: Q01DX009 (ip), vehicle: Klucel (hydroxypropylcellulose) (HPC)
[16] = dose: 50.0 mg/kg/injection, schedule: Q04DX003 (ip), vehicle: saline with Tween-80
[17] = dose: 100.0 mg/kg/injection, schedule: Q04DX003 (ip), vehicle: saline with Tween-80
[18] = dose: 200.0 mg/kg/injection, schedule: Q04DX003 (ip), vehicle: saline with Tween-80
[19] = dose: 50.0 mg/kg/injection, schedule: Q01DX009 (ip), vehicle: saline
[20] = dose: 100.0 mg/kg/injection, schedule: Q01DX009 (ip), vehicle: saline
[21] = dose: 200.0 mg/kg/injection, schedule: Q01DX009 (ip), vehicle: saline
[22] = dose: 400.0 mg/kg/injection, schedule: Q04DX003 (ip), vehicle: saline with Tween-80
[23] = dose: 200.0 mg/kg/injection, schedule: Q01DX005 (ip), vehicle: Klucel (hydroxypropylcellulose) (HPC)
[24] = dose: 60.0 mg/kg/injection, schedule: Q01DX005 (ip), vehicle: Klucel (hydroxypropylcellulose) (HPC)
[25] = dose: 120.0 mg/kg/injection, schedule: Q01DX005 (ip), vehicle: Klucel (hydroxypropylcellulose) (HPC)
[26] = dose: 240.0 mg/kg/injection, schedule: Q01DX005 (ip), vehicle: Klucel (hydroxypropylcellulose) (HPC)

O=C(Nc1ccc([N+](=O)[O-])cc1)Nc1ccc([N+](=O)[O-])cc1 (tested in a mixture with another compound)
T/C [1]: 103 % of control
T/C [2]: 100 % of control
T/C [3]: 117 % of control
T/C [4]: 100 % of control
T/C (dose: 400.0 mg/kg/injection, schedule: Q01DX009 (ip), vehicle: Klucel (hydroxypropylcellulose) (HPC)): 117 % of control
T/C (dose: 400.0 mg/kg/injection, schedule: Q01DX009 (ip), vehicle: saline with Tween-80): 104 % of control

O=C1C=C(Sc2ccc3ccccc3c2)C(=O)c2ccccc21
T/C (dose: 3.13 mg/kg/injection, schedule: Q01DX009 (ip), vehicle: saline with Tween-80): 101 % of control
T/C (dose: 6.25 mg/kg/injection, schedule: Q01DX009 (ip), vehicle: saline with Tween-80): 105 % of control
T/C (dose: 12.5 mg/kg/injection, schedule: Q01DX009 (ip), vehicle: saline with Tween-80): 104 % of control
T/C [5]: 95 % of control
T/C [6]: 104 % of control

COc1cc(OC)c2cc(C(=O)c3cccc4ccccc34)c(=O)oc2c1
T/C [7]: 102 % of control
T/C [8]: 114 % of control
T/C [9]: 91 % of control

NC(Cc1ccc(O)cc1)C(=O)N/N=C/c1ccccc1Cl (stereo not drawn)
T/C [10]: 100 % of control
T/C [11]: 106 % of control

CCCCCCC(=O)/C=C/c1cc(OC)cc(OC)c1
T/C [6]: 96 % of control
T/C [2]: 103 % of control
T/C [4]: 91 % of control

O=C(NC1CCCCC1)OCC1OC(n2cnc3c(=O)[nH]cnc32)C(OC(=O)NC2CCCCC2)C1OC(=O)NC1CCCCC1 (stereo not drawn)
T/C (dose: 6.25 mg/kg/injection, schedule: Q01DX005 (ip), vehicle: saline with Tween-80): 98 % of control
T/C (dose: 12.5 mg/kg/injection, schedule: Q01DX005 (ip), vehicle: saline with Tween-80): 90 % of control
T/C (dose: 25.0 mg/kg/injection, schedule: Q01DX005 (ip), vehicle: saline with Tween-80): 90 % of control

c1ccc2cc3c(N=Nc4cc5ccccc5[nH]4)cccc3cc2c1
T/C (dose: 100.0 mg/kg/injection, schedule: Q01DX001 (ip), vehicle: saline with Tween-80): 97 % of control
T/C (dose: 200.0 mg/kg/injection, schedule: Q01DX001 (ip), vehicle: saline with Tween-80): 97 % of control
T/C (dose: 400.0 mg/kg/injection, schedule: Q01DX001 (ip), vehicle: saline with Tween-80): 94 % of control

CCCn1cnc2c(=S)nc[nH]c21
T/C [5]: 86 % of control
T/C [6]: 90 % of control
T/C [2]: 109 % of control

COc1cc(CCc2cc(OC)c(OC)c(OC)c2)cc(OC)c1OC
T/C (dose: 31.25 mg/kg/injection, schedule: Q01DX009 (ip), vehicle: saline + Tween-80 + alcohol): 98 % of control
T/C (dose: 62.5 mg/kg/injection, schedule: Q01DX009 (ip), vehicle: saline + Tween-80 + alcohol): 91 % of control
T/C (dose: 125.0 mg/kg/injection, schedule: Q01DX009 (ip), vehicle: saline + Tween-80 + alcohol): 102 % of control
T/C (dose: 250.0 mg/kg/injection, schedule: Q01DX009 (ip), vehicle: saline + Tween-80 + alcohol): 87 % of control

CC1C[P+](c2ccccc2)(c2ccccc2)Cc2ccccc21 (stereo not drawn)
T/C (dose: 6.25 mg/kg/injection, schedule: Q01DX001 (ip), vehicle: saline): 101 % of control and 105 % of control and 108 % of control
T/C (dose: 12.5 mg/kg/injection, schedule: Q01DX001 (ip), vehicle: saline): 101 % of control and 117 % of control

CCCC/C(=N\NC(N)=NC)c1ccccc1
T/C (dose: 25.0 mg/kg/injection, schedule: Q04DX002 (ip), vehicle: saline with Tween-80): 99 % of control
T/C (dose: 50.0 mg/kg/injection, schedule: Q04DX002 (ip), vehicle: saline with Tween-80): 100 % of control

CC(C)C(Nc1nncs1)Nc1nncs1
T/C [7]: 103 % of control
T/C [8]: 109 % of control
T/C [9]: 118 % of control

CCN(CC)CCNc1cccc2oc3ccc(O)cc3c(=O)c12
T/C [12]: 108 % of control
T/C [13]: 105 % of control
T/C [14]: 108 % of control

C[N+]1(Cc2csc(-c3ccc(Cl)cc3)n2)CCOCC1
T/C (dose: 12.5 mg/kg/injection, schedule: Q01DX009 (ip), vehicle: Klucel (hydroxypropylcellulose) (HPC)): 100 % of control and 106 % of control
T/C (dose: 25.0 mg/kg/injection, schedule: Q01DX009 (ip), vehicle: Klucel (hydroxypropylcellulose) (HPC)): 113 % of control and 96 % of control
T/C [15]: 98 % of control and 108 % of control

COc1cc2cc(c1Cl)N1CC(O)C(C)(O)C(=O)NC(C)C(=O)OC(CC1=O)C1(C)OC1C(C)C1CC(O)(NC(=O)O1)C(OC)/C=C\C=C(\C)C2OC (stereo not drawn)
T/C (dose: 7.75 micrograms/kg/injection, schedule: Q01DX009 (ip), vehicle: none): 153 % of control
T/C (dose: 15.5 micrograms/kg/injection, schedule: Q01DX009 (ip), vehicle: none): 159 % of control

O=S1(=O)CC2(N3CCOCC3)C3CCC(C3)C21 (stereo not drawn)
T/C [16]: 99 % of control and 101 % of control
T/C [17]: 100 % of control and 104 % of control
T/C [18]: 101 % of control and 104 % of control

Cc1ccc(NC2OC(CO)C(O)C(O)C2O)cc1 (stereo not drawn)
T/C [19]: 104 % of control
T/C [20]: 111 % of control
T/C [21]: 98 % of control

CC(=O)NC(CSC(c1ccccc1)c1ccccc1)C(C)=O (stereo not drawn)
T/C [17]: 103 % of control
T/C [18]: 106 % of control
T/C [22]: 113 % of control

O=c1[nH]c(-c2cccnc2)nnc1-c1ccc(Cl)cc1
T/C [12]: 102 % of control
T/C [13]: 103 % of control
T/C [14]: 96 % of control

CC(=O)OCC1OC(n2cnc3c(=S)nc[nH]c32)C(OC(C)=O)C1OC(C)=O (stereo not drawn)
T/C [17]: 109 % of control
T/C [18]: 109 % of control
T/C [22]: 118 % of control

COc1cc2c(cc1OC)[C@H](C(=O)O)[C@@H](c1ccc(OC(C)C)c(OC)c1)N(C)C2=O
T/C [7]: 95 % of control
T/C [8]: 100 % of control
T/C [9]: 100 % of control

O/N=C/c1cc[n+](CCC[n+]2ccc(/C=N/O)cc2)cc1
T/C (dose: 5.0 mg/kg/injection, schedule: Q01DX009 (ip), vehicle: saline): 100 % of control
T/C (dose: 10.0 mg/kg/injection, schedule: Q01DX009 (ip), vehicle: saline): 90 % of control
T/C (dose: 20.0 mg/kg/injection, schedule: Q01DX009 (ip), vehicle: saline): 100 % of control

COc1ccc(CSC(=S)Nc2ccc(N=Nc3ccccc3)cc2)cc1
T/C [19]: 107 % of control
T/C [20]: 104 % of control
T/C [21]: 119 % of control

Cc1ncc(C(=O)c2cc(Cl)ccc2O)cn1
T/C (dose: 100.0 mg/kg/injection, schedule: Q04DX003 (ip), vehicle: saline): 100 % of control
T/C (dose: 200.0 mg/kg/injection, schedule: Q04DX003 (ip), vehicle: saline): 110 % of control
T/C (dose: 400.0 mg/kg/injection, schedule: Q04DX003 (ip), vehicle: saline): 100 % of control

Cn1ccc2c3c4ccccc4ccc3c3c(ccn3C)c21
T/C [10]: 197 % of control
T/C [11]: 177 % of control
T/C [23]: 239 % of control

Cc1cc(C(=O)NN)no1
T/C [19]: 99 % of control
T/C [20]: 100 % of control

CCC(C)Nc1c(N)cc(C(F)(F)F)cc1N (stereo not drawn)
T/C [24]: 98 % of control
T/C [25]: 97 % of control
T/C [26]: 99 % of control

CN(N=O)N1C(=O)SCC(c2ccccc2)(c2ccccc2)C1=O
T/C [24]: 97 % of control
T/C [25]: 90 % of control
T/C [26]: 88 % of control

CN(C)c1ccc(/C=C(/C#N)c2ccc(Cl)cc2)cc1
T/C [16]: 97 % of control
T/C [17]: 92 % of control
T/C [18]: 92 % of control
T/C [22]: 92 % of control

CCOC(=O)c1ccc(NC(=O)Nc2nnc(C)c(C)n2)cc1
T/C [15]: 92 % of control
T/C [1]: 88 % of control
T/C [3]: 88 % of control

O=C(COc1cccc2oc3ccccc3c(=O)c12)N/N=C/c1ccc(N(CCCl)CCCl)cc1
T/C [24]: 97 % of control
T/C [25]: 96 % of control
T/C [26]: 95 % of control

COc1ccc2c(c1OC)/C(=C/c1ccccc1)OC2C1c2c(cc3c(c2OC)OCO3)CCN1C (stereo not drawn)
T/C [10]: 104 % of control
T/C [11]: 105 % of control
T/C [23]: 96 % of control
